Reference: patent EP1542016A1, “PUMA, phosphorylated p53 and p38 map kinase as markers for HIV-1-induced apoptosis in circulating T cells of infected patient” (Institut Gustave Roussy, priority 2003, dated 2005)

System: Env-elicited syncytia
Format: cell-based
Conditions: SN50 20 µM, cyclic pifithrin-α 10 µM, added at the beginning of co-culture; Fig. 7D
Procedure: HeLa/U937 cell co-cultures were performed at different ratios (6). U937 or Jurkat cells were cultured with recombinant gp120 protein (500 ng/ml).

SMILES: Cc1ccc(-c2cn3c4c(sc3n2)CCCC4)cc1 [pifithrin-α, cyclic pifithrin-α]
- activation of Bax and Bak: inhibited
